The target of this experiment is P450 19A1 (aromatase) (Homo sapiens, UniProt P11511). Nature of the experiment: competitive ABPP: blockade of probe […] labeling, in-gel fluorescence. The class given is biochemical.
Sequence of P450 19A1 (aromatase) (P16435 2-677): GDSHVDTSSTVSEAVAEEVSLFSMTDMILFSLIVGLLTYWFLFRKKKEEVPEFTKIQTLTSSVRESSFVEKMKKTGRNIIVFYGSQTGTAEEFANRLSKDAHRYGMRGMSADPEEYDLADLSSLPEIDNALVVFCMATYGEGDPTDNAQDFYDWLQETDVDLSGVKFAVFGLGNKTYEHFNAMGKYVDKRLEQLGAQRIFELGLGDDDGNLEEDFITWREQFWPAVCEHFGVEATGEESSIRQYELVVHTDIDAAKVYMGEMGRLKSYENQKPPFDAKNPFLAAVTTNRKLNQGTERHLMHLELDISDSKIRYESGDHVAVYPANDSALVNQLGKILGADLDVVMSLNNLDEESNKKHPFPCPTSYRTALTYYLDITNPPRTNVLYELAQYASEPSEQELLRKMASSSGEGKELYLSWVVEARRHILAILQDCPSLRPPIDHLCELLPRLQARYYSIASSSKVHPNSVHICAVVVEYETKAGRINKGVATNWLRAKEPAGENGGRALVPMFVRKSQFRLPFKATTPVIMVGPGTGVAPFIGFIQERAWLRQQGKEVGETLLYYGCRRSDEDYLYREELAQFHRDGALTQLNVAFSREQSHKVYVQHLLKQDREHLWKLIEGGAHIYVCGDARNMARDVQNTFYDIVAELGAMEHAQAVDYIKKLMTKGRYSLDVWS
Sequence of P450 19A1 (aromatase) (P11511 whole entry): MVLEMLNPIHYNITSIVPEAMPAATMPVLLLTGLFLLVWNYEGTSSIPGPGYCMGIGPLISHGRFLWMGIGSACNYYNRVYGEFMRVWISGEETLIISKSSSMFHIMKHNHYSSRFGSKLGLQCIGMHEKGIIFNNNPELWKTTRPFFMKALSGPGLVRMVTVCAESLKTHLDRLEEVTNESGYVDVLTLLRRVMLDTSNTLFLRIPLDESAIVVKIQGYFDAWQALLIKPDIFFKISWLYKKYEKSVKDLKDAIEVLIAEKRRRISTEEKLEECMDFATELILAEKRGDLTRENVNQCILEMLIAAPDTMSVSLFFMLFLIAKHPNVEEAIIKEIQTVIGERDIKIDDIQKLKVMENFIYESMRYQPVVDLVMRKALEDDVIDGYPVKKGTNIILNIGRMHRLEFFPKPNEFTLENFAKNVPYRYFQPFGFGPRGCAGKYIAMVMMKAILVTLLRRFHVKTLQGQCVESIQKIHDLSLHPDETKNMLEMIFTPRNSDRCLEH

By IC50 is commonly meant the concentration at which inhibition is half-maximal. A low value points to higher potency. Turning to `C[C@]12CCC(=O)C(O)=C1CC[C@@H]1[C@@H]2CC[C@]2(C)C(=O)CC[C@@H]12` [formestane], the half-maximal inhibitory concentration (IC50) is 430 nM. This counts as sub-micromolar.

The record behind these values is publication PMC2737065 (Journal of the American Chemical Society, 2009).
